Patent US12440544B2, “Cross-reactive epitope for multiple sclerosis” (The Board of Trustees of the Leland Stanford Junior …, priority 2019, dated 2025)

Legend:
Format in all cases: cell-based, human
[1] = tested on: MS-1 TCR cell line; experiment: T cell stimulation assay (CD69), MS1-TCR cell line co-cultured with peptide-loaded T2-DR15 antigen presenting cells; settings: for self-peptide identified for TCR2/MS-1 TCR: predicted with positional mutation/refined substitution matrix data, used for MS-1 TCR stimulation
From the text: We generated MS1-TCR cell line, co-cultured with T2-DR15 antigen presenting cell line loaded with yeast library generated peptides and were examined for activation. CD69 was used as a marker for T cell activation. […] We used yeast library enrichment data to predict actual peptides/antigens (self or non-self) for MS-1 CD4 TCRs.
TCRα, β constructs were cloned into a lentiviral construct. For TCR expression, alpha and beta TCR lentiviral constructs were transfected into 293× cells separately. The virus was harvested after 72 hr of transfection and transduced into Jurkat αβ^−/− or SKW αβ^−/− cells. SKW or Jurkat cells were enriched for highest expression of TCRαβ by using a Miltenyi anti-APC selection (Miltenyi 130-090-855).
T cell stimulation assays were performed as previously described. All the T cell peptide stimulation experiments were done in 96 well round bottom plates with a 200 μl total volume. T2, K562 cells or BMDCs were pulsed with 10-100 ug of the peptides for 45 minutes, washed once and plated (10,000 cells/well). Cell lines expressing TCRs (100, 000 cells/well) were co-cultured with APCs for 18 hr. At the end of stimulation, cells were harvested, washed, and stained with TCRβ, human CD3, and CD69 and analyzed on LSR II (Becton Dickinson) for activation.

[2] = tested on: Adeno-TCR1; experiment: T cell stimulation of adeno-tetramer sorted CD4 TCR cell line, cross reactivity with MBP 85-99 peptide; settings: adeno specific TCR cell line stimulated with Adeno peptide and MBP
From the text: (§1) To detect/determine adeno specific T cells directly from MS patients (n=9) and healthy (n=9), we generated pMHC tetramers, enriched, and enumerated CD4's that are specific to the adeno peptide. We were able to detect adeno specific CD4 T cells, which were higher in number among MS patients compared to HC. We also single cell sorted these adeno specific CD4 T cells, sequenced their TCRs, and generated TCR cell lines (adeno specific TCRs).
(§2) TCR cell lines from adeno-tetramer sorted CD4 TCRs were tested for cross reactivity with MBP 85-99 peptide. We also tested MS-1 TCR for cross reactivity with MBP. Adeno specific TCRs were stimulated with Adeno peptide and MBP. TCR2/ms-1 TCR and some of the adeno-TCRs (Adeno-TCR1 and 9) cross react with MBP peptide. Serum from MS (n=28) and HC (n=10) was tested for adeno virus titers in the serum. A subset of MS sera had higher adeno virus compared to HC sera. CD3+ T cells from 8 MS and 5 HCs were sorted, and TCR and RNA-seq performed using 10× platform. Additionally, for 4 out of 8 MS patients, T cells from cerebrospinal fluid were sequenced. […]
(§3) T cell stimulation assays were performed as previously described. […] At the end of stimulation, cells were harvested, washed, and stained with TCRβ, human CD3, and CD69 and analyzed on LSR II (Becton Dickinson) for activation.

[3] = tested on: Adeno-TCR9; experiment: as above; settings: adeno specific TCR cell line stimulated with Adeno peptide and MBP
From the text: as §1, §2, §3

Sequence: DKGQQYRNWFLK [SEQ ID NO:4]
- self-peptide identified for TCR2/MS-1 TCR [1]: identified for TCR2/MS-1 TCR

Sequence: ANYGKARSWYLK [SEQ ID NO:2]
- self-peptide identified for TCR2/MS-1 TCR [1]: identified for TCR2/MS-1 TCR

Sequence: ENPVVHFFKNIVTPR [MBP peptide]
- cross reactivity of TCR2/MS-1 TCR with MBP peptide ([1]; TCR cell line stimulated with Adeno peptide and MBP): cross react
- cross reactivity of Adeno-TCR1 with MBP peptide [2]: cross react
- cross reactivity of Adeno-TCR9 with MBP peptide [3]: cross react

Sequence: ATFTSYRSWYLA [Adeno]
- stimulation of MS-1 TCR cell line (CD69 as marker for T cell activation) ([1]; co-cultured with T2-DR15 antigen presenting cell line loaded with peptide): stimulated MS-1 TCR cell line

Sequence: IDRHMYHSYLK [SEQ ID NO:3]
- self-peptide identified for TCR2/MS-1 TCR [1]: identified for TCR2/MS-1 TCR
